ChEMBL document CHEMBL3853333, “Synthesis of novel arylaminoquinazolinylurea derivatives and their antiproliferative activities against bladder cancer cell line” (2016)

experiment: Antiproliferative activity against human RT112 cells after 72 hrs by MTT assay; type: functional; conditions: RT-112, 72 h

Point of comparison: `COc1cc(Nc2ncnc3c(NC(=O)Nc4cc(Cl)c(Cl)cc4Cl)cccc23)cc(OC)c1`, GI50 4890 nM. Against it:
- COc1cc(Nc2ncnc3c(NC(=O)Nc4ccc(C(F)(F)F)cc4Cl)cccc23)cc(OC)c1 — 4.5-fold lower, 1080 nM
- COc1cc(Nc2ncnc3c(NC(=O)Nc4cc(C)cc(C)c4)cccc23)cc(OC)c1 — 2.1-fold higher, 10100 nM
- COc1cc(Nc2ncnc3c(NC(=O)Nc4cccc(Oc5ccccc5)c4)cccc23)cc(OC)c1 — 2.9-fold higher, 14000 nM
- COc1cc(Nc2ncnc3c(NC(=O)Nc4ccc(C)c(C)c4)cccc23)cc(OC)c1 — 560-fold lower, 8.8 nM
- COc1cc(Nc2ncnc3c(NC(=O)c4cccc(N5CCN(C)CC5)c4)cccc23)cc(OC)c1 — higher, > 20000 nM
- COc1cc(Nc2ncnc3c(NC(=O)Nc4ccc5c(c4)OCCO5)cccc23)cc(OC)c1 — 1.8-fold lower, 2750 nM
- COc1cc(Nc2ncnc3c(NC(=O)Nc4cccc(Cl)c4Cl)cccc23)cc(OC)c1 — 77-fold lower, 63.2 nM
- COc1cc(Nc2ncnc3c(NC(=O)Nc4ccc(Cl)c(Cl)c4)cccc23)cc(OC)c1 — within 1.5-fold, 6230 nM
- COc1cc(Nc2ncnc3c(NC(=O)Nc4cccc(Cc5ccccc5)c4)cccc23)cc(OC)c1 — 2.8-fold lower, 1740 nM
- COc1cc(Nc2ncnc3c(NC(=O)Nc4cc(Cl)cc(Cl)c4)cccc23)cc(OC)c1 — 160-fold lower, 30.2 nM
- COc1cc(Nc2ncnc3c(NC(=O)Nc4ccc(C)cc4C)cccc23)cc(OC)c1 — 3.8-fold lower, 1290 nM
- COc1cc(Nc2ncnc3c(NC(=O)Nc4ccccc4Cl)cccc23)cc(OC)c1 — 14-fold lower, 356 nM
- COc1cc(NC(=O)Nc2cccc3c(Nc4cc(OC)cc(OC)c4)ncnc23)cc(OC)c1 — 13-fold lower, 366 nM
- COc1cc(Nc2ncnc3c(NC(=O)Nc4ccc(C(F)(F)F)cc4[N+](=O)[O-])cccc23)cc(OC)c1 — higher, > 20000 nM
- COc1cc(Nc2ncnc3c(NC(=O)Nc4cccc(C)c4C)cccc23)cc(OC)c1 — within 1.5-fold, 5910 nM
- COc1cc(Nc2ncnc3c(NC(=O)Nc4ccc(F)cc4F)cccc23)cc(OC)c1 — 2-fold lower, 2460 nM
- COc1cc(Nc2ncnc3c(NC(=O)Nc4cc(C(F)(F)F)cc(C(F)(F)F)c4)cccc23)cc(OC)c1 — 10-fold lower, 467 nM
- COc1cc(Nc2ncnc3c(NC(=O)Nc4ccc(Cl)c(C(F)(F)F)c4)cccc23)cc(OC)c1 — higher, > 20000 nM
- COc1cc(Nc2ncnc3c(NC(=O)c4ccc(CN(C)C)cc4)cccc23)cc(OC)c1 — within 1.5-fold, 4370 nM
- CCOC(=O)c1ccc(NC(=O)Nc2cccc3c(Nc4cc(OC)cc(OC)c4)ncnc23)cc1 — 15-fold lower, 317 nM
- COc1cc(Nc2ncnc3c(NC(=O)c4cc(=O)c5ccccc5o4)cccc23)cc(OC)c1 — higher, > 20000 nM
- COc1cc(Nc2ncnc3c(NC(=O)Nc4ccc([N+](=O)[O-])cc4)cccc23)cc(OC)c1 — higher, > 20000 nM
- COc1cc(Nc2ncnc3c(NC(=O)Nc4cccc(C(F)(F)F)c4F)cccc23)cc(OC)c1 — 10-fold lower, 471 nM
- COc1cc(CCc2cc(NC(=O)c3ccc(N4C[C@@H](C)N[C@@H](C)C4)cc3)n[nH]2)cc(OC)c1 [FEXAGRATINIB] — 170-fold lower, 29.2 nM
- COc1cc(Nc2ncnc3c(NC(=O)Nc4cc(F)cc(F)c4)cccc23)cc(OC)c1 — 1.9-fold lower, 2630 nM
- COc1cc(Nc2ncnc3c(NC(=O)Nc4ccc(C(F)(F)F)cc4)cccc23)cc(OC)c1 — within 1.5-fold, 3920 nM
- CCN(CC)CCCCNc1ncc2cc(-c3cc(OC)cc(OC)c3)c(NC(=O)NC(C)(C)C)nc2n1 [PD-173074] — 330-fold lower, 15 nM
- COc1cc(Nc2ncnc3c(NC(=O)c4ccc(N5CCN(C)CC5)cc4)cccc23)cc(OC)c1 — 2.9-fold higher, 14200 nM
- COc1cc(Nc2ncnc3c(NC(=O)Nc4ccc(F)cc4C(F)(F)F)cccc23)cc(OC)c1 — 1.6-fold lower, 2970 nM
- COc1cc(Nc2ncnc3c(NC(=O)Nc4ccc(Cl)cc4Cl)cccc23)cc(OC)c1 — 1.6-fold lower, 3060 nM
- COc1cc(Nc2ncnc3c(NC(=O)Nc4ccc(Cl)cc4)cccc23)cc(OC)c1 — 2-fold lower, 2490 nM
